The values that follow come from patent US20080318933A1, “5-Sulfonyl-1-Piperidinyl Substituted Indole Derivatives as 5-Ht6 Receptor Antagonists for the Treatment of Cns Disorders” (Glaxo Group Limited, priority 2004, published 2008).

Where a name gives a salt, the structure may show the parent alone.

T1 sequence (P50406 whole entry): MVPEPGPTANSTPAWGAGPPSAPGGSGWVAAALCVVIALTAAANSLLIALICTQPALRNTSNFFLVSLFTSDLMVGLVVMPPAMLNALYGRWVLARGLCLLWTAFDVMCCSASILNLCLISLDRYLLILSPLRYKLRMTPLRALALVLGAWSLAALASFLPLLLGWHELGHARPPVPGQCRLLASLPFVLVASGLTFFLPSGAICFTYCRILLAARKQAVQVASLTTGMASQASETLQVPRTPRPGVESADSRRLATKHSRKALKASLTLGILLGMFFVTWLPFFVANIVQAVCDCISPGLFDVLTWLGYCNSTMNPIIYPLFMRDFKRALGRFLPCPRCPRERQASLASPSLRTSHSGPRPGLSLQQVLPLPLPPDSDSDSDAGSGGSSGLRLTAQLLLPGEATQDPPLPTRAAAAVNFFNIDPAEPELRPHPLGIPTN

This test concerns the target T1, human cloned 5-HT6 receptors (Homo sapiens, UniProt P50406).
T1 construct: expressed in transfected cells; host or cells: HeLa cells expressing cloned human 5-HT6 receptor (membranes)
The test can be described thus: Cyclase assay (cAMP production in membranes of HeLa 5HT6 cells, 5-HT stimulated). Format: biochemical. Particulars: 5-HT at 4xEC50, functional Ki by Cheng-Prusoff, read-out: pKi values (converted). The procedure:
0.5 μl of test compound in 100% dimethylsulfoxide (DMSO) was added to a white, solid 384 well assay plate (for dose response measurements the top of the concentration range is 7.5 μM final). 10 μl of washed membranes of HeLa 5HT6 cells (for preparation see WO 98/27081) in basic buffer (50 mM HEPES pH 7.4 (KOH), 10 mM MgCl2, 100 mM NaCl, 10 μM 3-isobutyl-1-methylxanthine (IBMX) (Sigma-Aldrich)) was added to all wells followed by 10 μl 2×ATP buffer (i.e. basic buffer containing 3 mM ATP) with 5-HT (at a concentration equivalent to a dose response of 4×EC50). The resultant mixture was then incubated at room temperature for 30-45 minutes to allow cAMP production. cAMP production was then measured using the DiscoveRX™ HitHunter™ chemiluminescence cAMP assay kit (DiscoveRx Corporation, 42501 Albrae Street, Fremont, Calif. 94538; Product Code: 90-0004L) or any other suitable cAMP measurement assay.
IC50 values were estimated from arbitrary designated unit (ADU) measurements from a Perkin Elmer Viewlux instrument using a four parameter logistic curve fit within EXCEL (Bowen, W. P. and Jerman, J. C. (1995), Nonlinear regression using spreadsheets. Trends in Pharmacol. Sci., 16, 413-417). Functional Ki values were calculated using the method of Cheng, Y. C. and Prussof, W. H. (Biochemical Pharmacol (1973) 22 3099-3108). plC50 and fpKi are the negative log 10 of the molar IC50 and functional Ki respectively.
On the technique in general: Changes in cAMP serve as a functional read-out for many G protein-coupled receptors.
Regarding `O=S(=O)(c1ccc(F)c(F)c1)c1ccc2c(c1)CCN2C1CCNCC1` [Example E25, 5-[(3,4-Difluorophenyl)sulfonyl]-1-(4-piperidinyl)-2,3-dihydro-1H-indole hydrochloride], the Ki was at most 10 nM. For `CC(C)(C)CN1CCC(N2CCc3cc(S(=O)(=O)c4ccccc4)ccc32)CC1` [Example E38, 1-[1-(2,2-dimethylpropyl)-4-piperidinyl]-5-(phenylsulfonyl)-2,3-dihydro 1H-indole], the Ki was below 316 nM. The same measure for `O=S(=O)(c1ccccc1)c1ccc2c(ccn2C2CCNCC2)c1` [Example E1, 5-(Phenylsulfonyl)-1-(4-piperidinyl)-1H-indole hydrochloride]: at most 10 nM; for `O=S(=O)(c1ccccc1)c1ccc2c(c1)CCN2C1CCNC1` (stereo not shown) [Example E17a, 5-(Phenylsulfonyl)-1-(3-pyrrolidinyl)-2,3-dihydro-1H-indole]: at most 10 nM. The same measure for `CN1CCC(N2CCc3cc(S(=O)(=O)c4ccccc4Cl)ccc32)CC1` [Example E49, 5-[(2-Chlorophenyl)sulfonyl]-1-(1-methyl-4-piperidinyl)-2,3-dihydro-1H-indole hydrochloride]: at most 10 nM; for `CN1CCCC(N2CCc3cc(S(=O)(=O)c4ccccc4)ccc32)CC1` (stereo not shown) [Example E31, 1-(1-Methylhexahydro-1H-azepin-4-yl)-5-(phenylsulfonyl)-2,3-dihydro-1H-indole hydrochloride]: at most 10 nM; for `CN1CCC(N2CC(C)(C)c3cc(S(=O)(=O)c4ccccc4)ccc32)CC1` [Example E5, 3,3-Dimethyl-1-(1-methyl-4-piperidinyl)-5-(phenylsulfonyl)-2,3-dihydro-1H-indole hydrochloride]: below 316 nM. For `CC(C)N1CCC(N2CCc3cc(S(=O)(=O)c4cccc(F)c4)ccc32)CC1` [Example E57, 5-[(3-Fluorophenyl)sulfonyl]-1-(1-(1-methylethyl)-4-piperidinyl)-2,3-dihydro-1H-indole hydrochloride], the Ki was at most 10 nM. The same measure for `CC(C)N1CCC(N2CCc3cc(S(=O)(=O)c4cc(F)ccc4F)ccc32)CC1` [Example E43, 5-[(2,5-Difluorophenyl)sulfonyl]-1-[1-(1-methylethyl)-4-piperidinyl]-2,3-dihydro-1H-indole hydrochloride]: at most 10 nM; for `N#Cc1cccc(S(=O)(=O)c2ccc3c(c2)CCN3C2CCNCC2)c1` [Example E21, 3-{[1-(4-Piperidinyl)-2,3-dihydro-1H-indol-5-yl]sulfonyl}benzonitrile hydrochloride]: at most 10 nM. The same measure for `CN1CCC(N2CCc3cc(S(=O)(=O)c4ccc(F)c(F)c4)ccc32)CC1` [Example E59, 5-[(3,4-Difluorophenyl)sulfonyl]-1-(1-methyl-4-piperidinyl)-2,3-dihydro-1H-indole hydrochloride]: at most 10 nM. The same measure for `O=S(=O)(c1cccc(Cl)c1)c1ccc2c(c1)CCN2C1CCNCC1` [Example E24, 5-[(3-Chlorophenyl)sulfonyl]-1-(4-piperidinyl)-2,3-dihydro-1H-indole hydrochloride]: at most 10 nM; for `CCCN1CCC(N2CCc3cc(S(=O)(=O)c4cccc(C)c4)ccc32)CC1` [Example E64, 5-[(3-Methylphenyl)sulfonyl]-1-(1-propyl-4-piperidinyl)-2,3-dihydro-1H-indole hydrochloride]: at most 10 nM; for `O=S(=O)(c1cccc(F)c1)c1ccc2c(ccn2C2CCNCC2)c1` [Example E22, 5-[(3-Fluorophenyl)sulfonyl]-1-(4-piperidinyl)-1H-indole hydrochloride]: at most 10 nM.

Turning to `CN1CCC(N2CCc3cc(S(=O)(=O)c4cccc(Cl)c4)ccc32)CC1` [Example E53, 5-[(3-Chlorophenyl)sulfonyl]-1-(1-methyl-4-piperidinyl)-2,3-dihydro-1H-indole hydrochloride], the Ki is at most 10 nM.

With `O=S(=O)(c1ccccc1)c1cc(Cl)c2c(c1)CCN2C1CCNCC1` [Example E19a, 7-Chloro-5-(phenylsulfonyl)-1-(4-piperidinyl)-2,3-dihydro-1H-indole hydrochloride], the Ki was at most 10 nM.

In the case of `CCN1CCC(N2CCc3cc(S(=O)(=O)c4cc(F)ccc4F)ccc32)CC1` [Example E42, 5-[(2,5-Difluorophenyl)sulfonyl]-1-(1-ethyl-4-piperidinyl)-2,3-dihydro-1H-indole hydrochloride], the Ki was at most 10 nM. With `CCCN1CCC(N2CCc3cc(S(=O)(=O)c4cc(F)ccc4F)ccc32)CC1` [Example E44, 5-[(2,5-Difluorophenyl)sulfonyl]-1-(1-propyl-4-piperidinyl)-2,3-dihydro-1H-indole hydrochloride] the figure was at most 10 nM; with `CN1CCC(N2CCc3cc(S(=O)(=O)c4ccccc4)cc(Cl)c32)CC1` [Example E32, 7-Chloro-1-(1-methyl-4-piperidinyl)-5-(phenylsulfonyl)-2,3-dihydro-1H-indole hydrochloride], at most 10 nM; with `Cc1ccc(S(=O)(=O)c2ccc3c(c2)CCN3C2CCNCC2)cc1` [Example E11, 5-[(4-methylphenyl)sulfonyl]-1-(4-piperidinyl)-2,3-dihydro-1H-indole], at most 10 nM. For `CCCN1CCC(N2CCc3cc(S(=O)(=O)c4cc(F)cc(F)c4)ccc32)CC1` [Example E34, 5-[(3,5-Difluorophenyl)sulfonyl]-1-(1-propyl-4-piperidinyl)-2,3-dihydro-1H-indole hydrochloride], the Ki was at most 10 nM. On to `CCN1CCC(N2CCc3cc(S(=O)(=O)c4cccc(Cl)c4)ccc32)CC1` [Example E54, 5-[((3-Chlorophenyl)sulfonyl]-1-(1-ethyl-4-piperidinyl)-2,3-dihydro-1H-indole hydrochloride], for which the Ki was at most 10 nM.

In the case of `CN1CCC(N2CCc3cc(S(=O)(=O)c4ccccc4F)ccc32)CC1` [Example E48, 5-[(2-Fluorophenyl)sulfonyl]-1-(1-methyl-4-piperidinyl)-2,3-dihydro-1H-indole hydrochloride], the Ki was at most 10 nM. The same measure for `O=S(=O)(c1ccccc1)c1ccc2c(c1)CCN2C1CCCNCC1` (stereo not shown) [Example E16a, 1-(Hexahydro-1H-azepin-4-yl)-5-(phenylsulfonyl)-2,3-dihydro-1H-indole]: at most 10 nM; for `CCCN1CCC(N2CCc3cc(S(=O)(=O)c4cccc(F)c4)ccc32)CC1` [Example E56, 5-[(3-Fluorophenyl)sulfonyl]-1-(1-propyl-4-piperidinyl)-2,3-dihydro-1H-indole hydrochloride]: at most 10 nM. The same measure for `O=S(=O)(c1ccc2c(c1)CCN2C1CCNCC1)c1cc(F)ccc1F` [Example E27, 5-[(2,5-Difluorophenyl)sulfonyl]-1-(4-piperidinyl)-2,3-dihydro-1H-indole hydrochloride]: at most 10 nM; for `Cc1cn(C2CCNCC2)c2ccc(S(=O)(=O)c3ccccc3)cc12` [Example E65, 3-Methyl-5-(phenylsulfonyl)-1-(4-piperidinyl)-1H-indole hydrochloride]: at most 10 nM; for `CN1CCC(N2CCc3cc(S(=O)(=O)c4ccccc4)ccc32)C1` (stereo not shown) [Example E30, 1-(1-Methyl-3-pyrrolidinyl)-5-(phenylsulfonyl)-2,3-dihydro-1H-indole hydrochloride]: at most 10 nM.
